pIC50: −log10 of the molar value.

IC50 data for 18 molecules are collected here from patent publication US20210317134A1, “UBIQUITIN-SPECIFIC-PROCESSING PROTEASE 7 (USP7) MODULATORS AND USES THEREOF” (RAPT THERAPEUTICS, INC., priority 2019, published 2021).

The target in the assay is USP7 (Homo sapiens, UniProt Q93009). In words: USP7 inhibitory potency (Table 1). The class given is biochemical.
Chain of USP7 (Q93009 whole entry): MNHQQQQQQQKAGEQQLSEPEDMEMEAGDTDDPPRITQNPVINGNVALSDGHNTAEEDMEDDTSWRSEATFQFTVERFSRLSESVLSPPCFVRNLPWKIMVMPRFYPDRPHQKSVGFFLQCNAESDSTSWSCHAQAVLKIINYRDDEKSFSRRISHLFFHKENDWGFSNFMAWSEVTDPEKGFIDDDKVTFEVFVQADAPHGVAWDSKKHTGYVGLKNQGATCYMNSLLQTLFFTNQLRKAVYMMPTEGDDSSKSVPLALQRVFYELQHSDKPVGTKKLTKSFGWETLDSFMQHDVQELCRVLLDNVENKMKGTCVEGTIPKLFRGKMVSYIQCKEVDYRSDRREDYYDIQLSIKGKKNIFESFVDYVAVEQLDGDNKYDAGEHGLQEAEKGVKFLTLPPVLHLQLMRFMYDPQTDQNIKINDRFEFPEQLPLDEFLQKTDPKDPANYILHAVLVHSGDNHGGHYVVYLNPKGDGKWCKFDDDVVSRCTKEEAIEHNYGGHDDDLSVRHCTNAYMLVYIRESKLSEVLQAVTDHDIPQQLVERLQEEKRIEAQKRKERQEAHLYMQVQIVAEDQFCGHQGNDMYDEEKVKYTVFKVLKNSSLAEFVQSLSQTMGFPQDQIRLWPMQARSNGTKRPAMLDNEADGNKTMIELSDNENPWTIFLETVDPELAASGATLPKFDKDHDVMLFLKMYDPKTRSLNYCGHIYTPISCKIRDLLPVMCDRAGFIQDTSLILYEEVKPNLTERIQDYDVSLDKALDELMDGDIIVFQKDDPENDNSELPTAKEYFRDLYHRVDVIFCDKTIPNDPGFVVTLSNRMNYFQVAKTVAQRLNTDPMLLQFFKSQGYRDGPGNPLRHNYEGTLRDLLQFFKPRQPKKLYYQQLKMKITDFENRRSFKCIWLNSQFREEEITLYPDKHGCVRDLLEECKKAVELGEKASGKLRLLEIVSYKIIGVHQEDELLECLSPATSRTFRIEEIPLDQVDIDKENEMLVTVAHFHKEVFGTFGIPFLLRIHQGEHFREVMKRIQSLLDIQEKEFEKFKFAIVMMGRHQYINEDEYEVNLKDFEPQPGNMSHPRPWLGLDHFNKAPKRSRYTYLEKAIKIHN

The molecule `CC1(CO)Cc2nccc(-c3cc(Cl)cc4c3O[C@@H](C(=O)N3CCNCC3)C4)c2C1` (stereo partly drawn) [((2R)-5-chloro-7-(6-(hydroxymethyl)-6-methyl-6,7-dihydro-5H-cyclopenta[b]pyridin-4-yl)-2,3-dihydrobenzofuran-2-yl)(piperazin-1-yl)methanone] showed a pIC50 greater than 6.00.

`O=C(C1Cc2cc(Cl)cc(-c3ccnc4cc[nH]c34)c2O1)N1CCNCC1` (stereo not drawn) [(5-chloro-7-(1H-pyrrolo[3,2-b]pyridin-7-yl)-2,3-dihydrobenzofuran-2-yl)(piperazin-1-yl)methanone] showed a negative-log IC50 (pIC50) of 5.00 to 6.00.

For `CC(=O)NC(C)Cc1cc2nccc(-c3cc(Cl)cc4c3O[C@@H](C(=O)N3CCNCC3)C4)c2s1` (stereo partly drawn) [N-(1-(7-((R)-5-chloro-2-(piperazine-1-carbonyl)-2,3-dihydrobenzofuran-7-yl)thieno[3,2-b]pyridin-2-yl)propan-2-yl)acetamide], the negative logarithm of the IC50 (pIC50) is greater than 6.00.

With `O=C(C1Cc2cc(Cl)cc(-c3ccnc4[nH]c(Cc5cc6ccccc6cn5)cc34)c2O1)N1CCNCC1` (stereo not drawn) [(5-chloro-7-(2-(isoquinolin-3-ylmethyl)-1H-pyrrolo[2,3-b]pyridin-4-yl)-2,3-dihydrobenzofuran-2-yl)(piperazin-1-yl)methanone], the pIC50 is 5.00 to 6.00.

The molecule `O=C(N[C@@H]1CCCNC1)C1Cc2cc(Cl)cc(-c3ccnc4[nH]ccc34)c2O1` (stereo partly drawn) [5-Chloro-N-((R)-piperidin-3-yl)-7-(1H-pyrrolo[2,3-b]pyridin-4-yl)-2,3-dihydrobenzofuran-2-carboxamide] had a pIC50 of 5.00 to 6.00.

The molecule `O=C(C1Cc2cc(Cl)cc(-c3ccnc4[nH]ccc34)c2O1)N1CCC(N2CCOCC2)CC1` (stereo not drawn) [(5-chloro-7-(1H-pyrrolo[2,3-b]pyridin-4-yl)-2,3-dihydrobenzofuran-2-yl)(4-morpholinopiperidin-1-yl)methanone] showed a pIC50 of 5.00 to 6.00.

`O=C([C@H]1Cc2cc(Cl)cc(-c3ccnc4cc(CCN5C(=O)CCC5=O)sc34)c2O1)N1CCNCC1` [(R)-1-(2-(7-(5-chloro-2-(piperazine-1-carbonyl)-2,3-dihydrobenzofuran-7-yl)thieno[3,2-b]pyridin-2-yl)ethyl)pyrrolidine-2,5-dione]: the negative-log IC50 (pIC50) was greater than 6.00.

As to `N#CCC(O)c1cc2nccc(-c3cc(Cl)cc4c3O[C@@H](C(=O)N3CCNCC3)C4)c2s1` (stereo partly drawn) [3-(7-((R)-5-chloro-2-(piperazine-1-carbonyl)-2,3-dihydrobenzofuran-7-yl)thieno[3,2-b]pyridin-2-yl)-3-hydroxypropanenitrile], the pIC50 is greater than 6.00.

Consider `CCC(O)c1cc2nccc(-c3cc(Cl)cc4c3O[C@@H](c3onc5c3CN(C)CC5)C4)c2s1` (stereo partly drawn) [drawing 1573, 1-(7-((R)-5-chloro-2-(5-methyl-4,5,6,7-tetrahydroisoxazolo[4,3-c]pyridin-3-yl)-2,3-dihydrobenzofuran-7-yl)thieno[3,2-b]pyridin-2-yl)propan-1-ol], for which the negative logarithm of the IC50 (pIC50) is greater than 6.00.

Consider `OCC(O)(CCl)c1cc2nccc(-c3cc(Cl)cc4c3O[C@@H](c3onc5c3CNCC5)C4)c2s1` (stereo partly drawn) [3-chloro-2-(7-((R)-5-chloro-2-(4,5,6,7-tetrahydroisoxazolo[4,3-c]pyridin-3-yl)-2,3-dihydrobenzofuran-7-yl)thieno[3,2-b]pyridin-2-yl)propane-1,2-diol], for which the negative logarithm of the IC50 (pIC50) is greater than 6.00.

Turning to `Clc1cc2c(c(-c3ccnc4[nH]ccc34)c1)OC(c1n[nH]c3c1CNCC3)C2` (stereo not drawn) [3-(5-chloro-7-(1H-pyrrolo[2,3-b]pyridin-4-yl)-2,3-dihydrobenzofuran-2-yl)-4,5,6,7-tetrahydro-1H-pyrazolo[4,3-c]pyridine], the negative logarithm of the IC50 (pIC50) is 5.00 to 6.00.

For the molecule `C[C@H]1CCN(Cc2cc3nccc(-c4cc(Cl)cc5c4O[C@@H](C(=O)N4CCNCC4)C5)c3s2)C1=O` [(S)-1-((7-((R)-5-chloro-2-(piperazine-1-carbonyl)-2,3-dihydrobenzofuran-7-yl)thieno[3,2-b]pyridin-2-yl)methyl)-3-methylpyrrolidin-2-one], the pIC50 is greater than 6.00.

In the case of `O=C(C1CCNCC1)C1Cc2cc(Cl)cc(-c3ccnc4[nH]ccc34)c2O1` (stereo not drawn) [(5-chloro-7-(1H-pyrrolo[2,3-b]pyridin-4-yl)-2,3-dihydrobenzofuran-2-yl)(piperidin-4-yl)methanone], the negative-log IC50 (pIC50) was 5.00 to 6.00.

With `FC(F)(F)CN1CCc2noc([C@H]3Cc4cc(Cl)cc(-c5ccnc6ccsc56)c4O3)c2C1` [(R)-3-(5-chloro-7-(thieno[3,2-b]pyridin-7-yl)-2,3-dihydrobenzofuran-2-yl)-5-(2,2,2-trifluoroethyl)-4,5,6,7-tetrahydroisoxazolo[4,3-c]pyridine], the negative-log IC50 (pIC50) was greater than 6.00.

As for `O=C1CCCN1Cc1cc2nccc(-c3cc(Cl)cc4c3O[C@@H](C(=O)N3CCNCC3)C4)c2s1` [(R)-1-((7-(5-chloro-2-(piperazine-1-carbonyl)-2,3-dihydrobenzofuran-7-yl)thieno[3,2-b]pyridin-2-yl)methyl)pyrrolidin-2-one], the pIC50 is greater than 6.00.

As to `COc1ccc2c(-c3cc(Cl)cc4c3OC(C(=O)N3CCNCC3)C4)ccnc2c1` (stereo not drawn) [(5-chloro-7-(7-methoxyquinolin-4-yl)-2,3-dihydrobenzofuran-2-yl)(piperazin-1-yl)methanone], the pIC50 was 5.00 to 6.00.

`O=C(C1Cc2cc(Cl)cc(-c3ccnc4[nH]ccc34)c2O1)N1CCC(O)(c2ccc(F)cc2Cl)CC1` (stereo not drawn) [(4-(2-chloro-4-fluorophenyl)-4-hydroxypiperidin-1-yl)(5-chloro-7-(1H-pyrrolo[2,3-b]pyridin-4-yl)-2,3-dihydrobenzofuran-2-yl)methanone] showed a pIC50 of 5.00 to 6.00.

Turning to `CNC1CCN(C(=O)[C@H]2Cc3cc(Cl)cc(-c4ccnc5cc(CO)sc45)c3O2)CC1` [(R)-(5-chloro-7-(2-(hydroxymethyl)thieno[3,2-b]pyridin-7-yl)-2,3-dihydrobenzofuran-2-yl)(4-(methylamino)piperidin-1-yl)methanone], the negative logarithm of the IC50 (pIC50) was greater than 6.00.
